Reference: patent US10870832B2, “Use of small molecules to enhance MAFA expression in pancreatic endocrine cells” (Janssen Biotech, Inc., priority 2014, dated 2020)

What was measured:
Assay type in all cases: cell-based, human
[1] = system: MAFA expression; assay: Stage 7 treatment, real-time PCR of MAFA (Example 7); details: Stage 7, day 14, 2 μM R428 or 2-5 μM inhibitor substituted for R428, H1-derived cells, mRNA
Procedure: (§1) Cells of the human embryonic stem cell line H1 (WA01) were seeded as single cells at 1×10^5 cells/cm^2 on MATRIGEL™ (1:30 dilution) coated dishes in E8 media. At about 70 to 80% confluency, the cultures were washed in 1× incomplete DPBS followed by incubation with 1× TrypLE™ Express Enzyme for 3 to 5 minutes at 37° C. The released cells were rinsed with E8 and spun at 1000 rpm for 5 minutes. The resulting cell pellet was resuspended in E8 supplemented with 10 μM Y-27632 and the single cell suspension was seeded at approximately 1.3 to 1.5×10^5 cells/cm^2. The cultures were fed every day with E8 medium and differentiation, according to the following protocol, was initiated 48 hrs. following seeding resulting in an about 90% starting confluency.
Stage 6 cells were cultured for fourteen days in BLAR medium supplemented with a 1:100 dilution of ITS-X; 20 mM glucose (final); 1.5 g/L sodium bicarbonate; 2% FAF-BSA; 10 μg/ml of heparin, 10 μM ZnSO4, 1 μM T3 as 3,3′, 5-triiodo-L-thyronine sodium salt, 10 μM ALK5 inhibitor II, 1 mM N-acetyl cysteine. Some cultures also included one of 2 μM R428, 2-5 μM RSK inhibitor II (2-(3,5-Difluoro-4-hydroxy-anilino)-8-isopentyl-5,7-dimethyl-7H-pteridin-6-one) (EMD Millipore; Catalog No, 559286-5MG), 2-5 μM aurora kinase inhibitor II (EMD Millipore, or a combination of 2-5 μM RSK inhibitor II and 2-5 μM aurora kinase II inhibitor.
At Stage 7, day 14, mRNA was collected and compared to undifferentiated human stem cells.

[2] = system: MAFA expression; assay: Small molecule screen at Stage 6 or 7, real-time PCR (Example 2); details: added at Stage 6, 1 μM, H1-derived cells at air-liquid interface
Procedure: Cells of the human embryonic stem cell line H1 (WA01) at passage 42 were seeded as single cells at 1×10^5 cells/cm^2 on MATRIGEL™ (1:30 dilution)-coated dishes in a media comprising of DMEM-F12, GlutaMAX™ (1:100 dilution), 0.25 mM ascorbic acid, 100 ng/ml of FGF2 (R & D systems, MN), 1 ng/ml of TGF-β, ITS-X (1:100 dilution), 2% FAF-BSA, and 20 ng/ml of IGF-1, supplemented with 10 μM of Y-27632. Forty-eight hours post-seeding, the cultures were washed in incomplete PBS (phosphate buffered saline without Mg or Ca) followed by incubation with 1× TrypLE™ Express Enzyme (Life Science; Catalog No. 14190) for 3 to 5 minutes at 37° C. The released cells were rinsed with DMEM-F12 and spun at 1000 rpm for 5 minutes. The resulting cell pellet was resuspended in DMEM-F12 supplemented with 10 μM Y-27632, 1× GlutaMAX™, 0.25 mM ascorbic acid, 100 ng/ml FGF2, 1 ng/ml TGF-β, ITS-X at a 1:100 dilution, 2% FAF-BSA and 20 ng/ml of IGF-1 and the single cell suspension was seeded at approximately 1.3 to 1.5×10^5 cells/cm^2. The cultures were fed every day with medium and differentiation, according to the following protocol, was initiated 48 hours following seeding resulting in an about 90% starting confluency. […]
At Stages 6 or 7, various small molecules were added and their effect was evaluated by real-time PCR.

[3] = system: MAFA expression; assay: Stage 7 treatment, real-time PCR of MAFA (Example 6); details: Stage 7, day 7, 2 μM in Stage 7 medium, H1-derived cells, mRNA
Procedure: as §1, with “TrypLET™” for “TrypLE™”
(§2) Stage 6 cells were cultured for seven days in BLAR medium supplemented with a 1:100 dilution of ITS-X; 20 mM glucose (final); 1.5 g/L sodium bicarbonate; 2% FAF-BSA; 10 μg/ml of heparin, 10 μM ZnSO4, 1 μM T3 as 3,3′, 5-triiodo-L-thyronine sodium salt, 10 μM ALK5 inhibitor II, 1 mM N-acetyl cysteine. […]
(§3) At Stage 7, day 7, mRNA was collected and expression of MAFA, UCN3, PDX1, NKX6.1, insulin and G6PC2 evaluated as compared to undifferentiated human stem cells. […]

[4] = system: UCN3 expression; assay: Stage 7 treatment, real-time PCR of UCN3 (Example 6); details: Stage 7, day 7, 2 μM in Stage 7 medium, H1-derived cells, mRNA
Procedure: as §1, with “TrypLET™” for “TrypLE™”
as §2, §3

[5] = system: G6PC2 expression; assay: Stage 7 treatment, real-time PCR of G6PC2 (Example 6); details: Stage 7, day 7, 2 μM in Stage 7 medium, H1-derived cells, mRNA
Procedure: as §1, with “TrypLET™” for “TrypLE™”
as §2, §3

| SMILES | MAFA expression [1] | expression of MAFA as compared to untreated cultures [2] | MAFA expression [3] | UCN3 expression [4] | G6PC2 expression [5] |
| --- | --- | --- | --- | --- | --- |
| CC(C)CCN1c2nc(Nc3cc(F)c(O)c(F)c3)ncc2N(C)C(=O)C1C (racemic) [RSK inhibitor, 2-(3,5-Difluoro-4-hydroxy-anilino)-8-isopentyl-5,7-dimethyl-7H-pteridin-6-one] | restored MAFA expression | – | – | – | – |
| CC(C)N(C[C@H]1O[C@@H](n2cnc3c(N)ncnc32)[C@H](O)[C@@H]1O)[C@H]1C[C@@H](CCc2nc3ccc(C(C)(C)C)cc3[nH]2)C1 [EPZ-5676, 9H-Purin-6-amine, 9-[5-deoxy-5-[[cis-3-[2-[6-(1,1-dimethylethyl)-1H-benzimidazol-2-yl]ethyl]cyclobutyl](1-methylethyl)amino]-β-D-ribofuranosyl]-] | – | significantly upregulated | – | – | – |
| COc1cc2ncnc(Nc3ccc(NC(=O)c4ccccc4)cc3)c2cc1OC [aurora kinase inhibitor II, 4-(4′-Benzamidoanilino)-6,7-dimethoxyquinazoline] | restored MAFA expression | – | increase in MAFA expression | maintenance of UCN3 and G6PC2 expression | maintenance of UCN3 and G6PC2 expression |
